Assay results as given in paper PMC11742723, “The clinical-stage drug BTZ-043 accumulates in murine tuberculosis lesions and efficiently acts against Mycobacterium tuberculosis” (Nature Communications, 2025).
“And” between values parts separate entries of the source, which are not always exact repeats. Equal values may be shown once. Read-outs that look alike come from different tables or passages of the source.

Assays:
[1] = LCM coupled LC-MS/MS of necrotic granulomas and non-necrotic regions; assay type: in vivo, IL-13tg mice; conditions: for concentration at 4 h: IL-13tg, mouse, oral
Protocol: Necrotic granulomas and non-necrotic regions were dissected from 2 to 3 γ−irradiated serial lung cryosections (thickness: 12 µm) using a PALM Microbeam (Zeiss, Oberkochen, Germany). Laser-dissected tissues were captured in an ascorbic acid solution (2.5 mg/mL) to prevent the degradation of BTZ-043 and stored at -80 °C. Samples were thawed on ice before drying in the SpeedVac. For reconstitution 80 µL of an 80% ACN/ 20% FA, containing 20 ng/mL reserpine and d4-BTZ-043, were added. The samples were vortexed for 1 min and kept in an ultrasonic bath for 3 min. Subsequently, the samples were centrifuged (10 min, 15,000 × g). The supernatant was transferred into a glass vial and 5 µL was injected into the LC. The LC settings and MS parameters were the same as described for the tissue mimetics (Supplementary Methods). As internal standard d4-BTZ-043 was utilized, with the m/z-transitions 436.0 → 86.0 (cone voltage of 30 V, collision energy of 30 eV, dwell time of 0.2 s) as quantifier. With the expected very low concentrations of the analyte in the LCM material, the deuterated standard was applied to better mimic matrix effects and recovery for this analysis. For calibration curve preparation lung homogenate from drug-naïve mice was added to 80% ACN/20% FA (1%), containing reserpine (as QC) and d4-BTZ-043 (20 ng/mL per sample) to the final solution containing about 0.44 µg tissue/mL, which equals the average weight of the obtained material of the LCM. After centrifugation (5 min, 15,000 × g) the supernatant was spiked with BTZ-043 to yield a calibration curve ranging from 0.00015–0.025 µg/mL.

[2] = Impact of γ-irradiation on BTZ-043 in lung cryosections of treated mice (LC-MS/MS, MALDI imaging)
Mtb H37Rv [3] = experiment: BTZ-043 dose escalation study in Mtb-infected BALB/c mice (pulmonary CFU); assay type: in vivo, Mycobacterium tuberculosis; conditions: for pulmonary CFU counts / mouse: individual female mice
Mtb H37Rv [4] = experiment: Prolonged BTZ-043 treatment of Mtb-infected IL-13tg mice (pulmonary CFU); assay type: in vivo, Mycobacterium tuberculosis
[5] = IL-13tg, mouse, in vivo
Mtb = test system: Mtb; set-up: method as in PMID 28821804; conditions: NOS2-deficient mice, 50 mg/kg/day, cited from earlier work
[6] = LCM flakes from adjacent area (non necrotic), 4h post administration, listed as BTZ
[7] = BALB/c, 8 weeks, 3 highest doses (250-1000 mg/kg/day)

SMILES: C[C@H]1COC2(CCN(c3nc(=O)c4cc(C(F)(F)F)cc([N+](=O)[O-])c4s3)CC2)O1 [BTZ-043]
- concentration at 4 h ([1]; TB granulomas laser-dissected from lung cryosections, 250 mg/kg, 4 h after administration, assumed tissue density 1 g/mL, read-out: mean BTZ-043 concentration within TB granulomas): 570 ng/mL
- concentration at 4 h ([1]; lung, laser-dissected necrotic granuloma, 250 mg/kg, LCM flakes from granulome area (granuloma), IL-13tg mouse lung cryosections, 4h post administration, read-out: ng/mg lung tissue, technical replicate 2): 495 ng/g
- concentration at 4 h ([1]; lung, laser-dissected necrotic granuloma, 250 mg/kg, LCM flakes from granulome area (granuloma), mean of 2 technical replicates, 4h post administration, read-out: ng/mg lung tissue, Mean): 430 ng/g
- concentration at 4 h ([1]; lung, whole cryosection, 250 mg/kg, whole cryosection from OT207 (QC, internal control), 4h post administration, read-out: ng/mg lung tissue, technical replicate 1): 779 ng/g
- concentration at 4 h ([1]; lung, whole cryosection, 250 mg/kg, whole cryosection from OT207 (QC, internal control), 4h post administration, read-out: ng/mg lung tissue, technical replicate 2): 846 ng/g
- concentration at 4 h ([1]; lung, whole cryosection, 250 mg/kg, whole cryosection from OT207 (QC, internal control), mean of 2 technical replicates, 4h post administration, read-out: ng/mg lung tissue, Mean): 810 ng/g
- concentration at 4 h ([1]; necrotic granulomas laser-dissected from lung cryosections, 250 mg/kg/day, IL-13tg mouse, 250 mg/kg/day 10 days, 4 h after application, read-out: mean BTZ-043 concentration in necrotic granulomas): 570 ng/g
- concentration at 4 h ([1]; non-necrotic regions laser-dissected from lung cryosections, 250 mg/kg/day, IL-13tg mouse, 250 mg/kg/day 10 days, 4 h after application, read-out: mean BTZ-043 concentration in non-necrotic regions): 340 ng/g
- concentration at 4 h ([1]; 250 mg/kg, LCM flakes from adjacent area (non necrotic), 4h post administration, read-out: ng/mg lung tissue, technical replicate 1): 388 ng/g
- concentration at 4 h ([1]; 250 mg/kg, LCM flakes from adjacent area (non necrotic), 4h post administration, read-out: ng/mg lung tissue, technical replicate 2): 371 ng/g
- concentration at 4 h ([1]; 250 mg/kg, LCM flakes from adjacent area (non necrotic), mean of 2 technical replicates, 4h post administration, read-out: ng/mg lung tissue, Mean): 380 ng/g
- ng/mg lung tissue, technical replicate 1 [1, 6]: 0.303 ng/mg lung tissue and 0.478 ng/mg lung tissue
- ng/mg lung tissue, technical replicate 2 [1, 6]: 0.299 ng/mg lung tissue and 0.205 ng/mg lung tissue
- ng/mg lung tissue, Mean ([1]; LCM flakes from adjacent area (non necrotic), mean of 2 technical replicates, 4h post administration, listed as BTZ): 0.30 ng/mg lung tissue and 0.34 ng/mg lung tissue
- ng/mg lung tissue, Mean ([1]; LCM flakes from granulome area (granuloma), mean of 2 technical replicates, 4h post administration, listed as BTZ): 0.66 ng/mg lung tissue and 0.65 ng/mg lung tissue
- concentration at 1 h ([2]; BALB/c, mouse, 250 mg/kg/day, ng/mg lung cryosection, measurement 2, no gamma irradiation, 1h after BTZ administration, naïve BALB/c 250 mg/kg/day 5 days, single cryosection): 1400 ng/g
- ng/mg lung cryosection, Mean ([2]; gamma irradiation, 1h after BTZ administration, naïve BALB/c 250 mg/kg/day 5 days, single cryosection): 13.81 ng/mg lung cryosection
- impact of γ-irradiation on the concentration and distribution of BTZ-043 ([2]; lung tissue cryosections, 5.85 kGy): does not impact
- pulmonary CFU counts / mouse (Mtb H37Rv [3]; 50 mg/kg BTZ-043, 4 weeks of treatment): 555882 CFU counts / mouse and 499154 CFU counts / mouse and 2156250 CFU counts / mouse and 558800 CFU counts / mouse and 525176 CFU counts / mouse and 501563 CFU counts / mouse
- pulmonary CFU counts / mouse (Mtb H37Rv [3]; 50 mg/kg BTZ-043, 6 weeks of treatment): 151667 CFU counts / mouse and 250364 CFU counts / mouse and 426300 CFU counts / mouse and 300706 CFU counts / mouse and 257455 CFU counts / mouse and 439714 CFU counts / mouse
- pulmonary CFU counts / mouse (Mtb H37Rv [3]; 50 mg/kg BTZ-043, 8 weeks of treatment): 287143 CFU counts / mouse and 182471 CFU counts / mouse and 166050 CFU counts / mouse and 110400 CFU counts / mouse and 84000 CFU counts / mouse
- pulmonary CFU counts / mouse (Mtb H37Rv [3]; 100 mg/kg BTZ-043, 4 weeks of treatment): 416625 CFU counts / mouse and 429231 CFU counts / mouse and 396000 CFU counts / mouse and 458571 CFU counts / mouse and 415800 CFU counts / mouse and 472500 CFU counts / mouse
- pulmonary CFU counts / mouse (Mtb H37Rv [3]; 100 mg/kg BTZ-043, 6 weeks of treatment): 34200 CFU counts / mouse and 61091 CFU counts / mouse and 157500 CFU counts / mouse and 207692 CFU counts / mouse and 197308 CFU counts / mouse and 173438 CFU counts / mouse
- pulmonary CFU counts / mouse (Mtb H37Rv [3]; 100 mg/kg BTZ-043, 8 weeks of treatment): 156000 CFU counts / mouse and 66000 CFU counts / mouse and 39129 CFU counts / mouse and 101769 CFU counts / mouse and 139765 CFU counts / mouse and 67765 CFU counts / mouse
- pulmonary CFU counts / mouse (Mtb H37Rv [3]; 250 mg/kg BTZ-043, 4 weeks of treatment): 634800 CFU counts / mouse and 254308 CFU counts / mouse and 513000 CFU counts / mouse and 409500 CFU counts / mouse and 484500 CFU counts / mouse and 249923 CFU counts / mouse
- pulmonary CFU counts / mouse (Mtb H37Rv [3]; 250 mg/kg BTZ-043, 6 weeks of treatment): 49400 CFU counts / mouse and 35888 CFU counts / mouse and 49309 CFU counts / mouse and 39877 CFU counts / mouse and 52521 CFU counts / mouse and 45750 CFU counts / mouse
- pulmonary CFU counts / mouse (Mtb H37Rv [3]; 250 mg/kg BTZ-043, 8 weeks of treatment): 25080 CFU counts / mouse and 15273 CFU counts / mouse and 21930 CFU counts / mouse and 15218 CFU counts / mouse and 42694 CFU counts / mouse and 15750 CFU counts / mouse
- pulmonary CFU counts / mouse (Mtb H37Rv [3]; 500 mg/kg BTZ-043, 4 weeks of treatment): 154286 CFU counts / mouse and 324000 CFU counts / mouse and 360000 CFU counts / mouse and 251750 CFU counts / mouse and 312857 CFU counts / mouse and 230769 CFU counts / mouse
- pulmonary CFU counts / mouse (Mtb H37Rv [3]; 500 mg/kg BTZ-043, 6 weeks of treatment): 54000 CFU counts / mouse and 150231 CFU counts / mouse and 60750 CFU counts / mouse and 101769 CFU counts / mouse and 56100 CFU counts / mouse and 15346 CFU counts / mouse
- pulmonary CFU counts / mouse (Mtb H37Rv [3]; 500 mg/kg BTZ-043, 8 weeks of treatment): 13200 CFU counts / mouse and 24750 CFU counts / mouse and 35550 CFU counts / mouse and 13714 CFU counts / mouse and 20250 CFU counts / mouse and 14657 CFU counts / mouse
- pulmonary CFU counts / mouse (Mtb H37Rv [3]; 1000 mg/kg BTZ-043, 4 weeks of treatment): 228000 CFU counts / mouse and 325600 CFU counts / mouse and 166909 CFU counts / mouse and 226154 CFU counts / mouse and 205800 CFU counts / mouse and 140000 CFU counts / mouse
- pulmonary CFU counts / mouse (Mtb H37Rv [3]; 1000 mg/kg BTZ-043, 6 weeks of treatment): 42075 CFU counts / mouse and 43131 CFU counts / mouse and 54450 CFU counts / mouse and 36450 CFU counts / mouse and 58900 CFU counts / mouse and 98571 CFU counts / mouse
- pulmonary CFU counts / mouse (Mtb H37Rv [3]; 1000 mg/kg BTZ-043, 8 weeks of treatment): 9208 CFU counts / mouse and 16615 CFU counts / mouse and 22100 CFU counts / mouse and 11500 CFU counts / mouse and 17738 CFU counts / mouse and 28600 CFU counts / mouse
- reduction of bacterial burden in comparison to the vehicle control group (Mtb H37Rv [3]; BALB/c lungs, 4 weeks of therapy, all doses 50-1000 mg/kg/day microcrystalline BTZ-043, oral 5 days/week): > 0.7 log10 CFU
- antimycobacterial activity compared to INH (25 mg/kg/day) (Mtb H37Rv [3]; BALB/c, 6 weeks, 50 mg/kg/day): reduced
- antimycobacterial activity compared to INH (25 mg/kg/day) (Mtb H37Rv [3]; BALB/c, 6 weeks, 100 mg/kg/day): comparable
- antimycobacterial activity compared to INH (25 mg/kg/day) (Mtb H37Rv [3]; BALB/c, 6 weeks, 250, 500 and 1000 mg/kg/day): significantly greater antimycobacterial activity than the first-line drug INH
- efficacy compared to INH therapy (Mtb H37Rv [3]; [7]): significantly increased efficacy
- pulmonary bacterial burden lower than the vehicle control group (Mtb H37Rv [3]; [7]): more than 2.4 log10 CFU
- lowest dose with maximum effect (LME) (Mtb H37Rv [3]; mouse model of TB (BALB/c), microcrystalline BTZ-043): 250 mg/kg/day
- pulmonary CFU / mouse (Mtb H37Rv [4]; BTZ-043 [250 mg/kg], 4-6 weeks of therapy, individual mice, female and male, 250 mg/kg): 823500 CFU / mouse and 616966 CFU / mouse and 3482791 CFU / mouse and 4043721 CFU / mouse and 7632000 CFU / mouse
- reduction of the pulmonary bacterial burden compared to the vehicle group (Mtb H37Rv [4]; IL-13tg mice, 250 mg/kg 5 times a week, prolonged therapy (4 to 6 weeks)): more than 2 log10 CFU
- penetration into the lesion by MALDI imaging [5]: penetration of BTZ-043 into the lesion was observed
- bactericidal activity (Mtb; 4 weeks of treatment): profound bactericidal activity
- effect on bacterial burden (Mtb; two weeks): hardly reduced the bacterial burden
